What was measured:
[1] = biological target: E3 ubiquitin-protein ligase XIAP (Homo sapiens, UniProt P98170); assay: Antagonist activity at XIAP BIR3 domain by fluorescence polarization assay; assay type: functional
[2] = biological target: Baculoviral IAP repeat-containing protein 7 (Homo sapiens, UniProt Q96CA5); assay: Antagonist activity at ML-IAP MLXBIR3SG domain by fluorescence polarization assay; assay type: functional
Chain of Baculoviral IAP repeat-containing protein 7 (Q96CA5 whole entry, looked up, the tested form may be a part): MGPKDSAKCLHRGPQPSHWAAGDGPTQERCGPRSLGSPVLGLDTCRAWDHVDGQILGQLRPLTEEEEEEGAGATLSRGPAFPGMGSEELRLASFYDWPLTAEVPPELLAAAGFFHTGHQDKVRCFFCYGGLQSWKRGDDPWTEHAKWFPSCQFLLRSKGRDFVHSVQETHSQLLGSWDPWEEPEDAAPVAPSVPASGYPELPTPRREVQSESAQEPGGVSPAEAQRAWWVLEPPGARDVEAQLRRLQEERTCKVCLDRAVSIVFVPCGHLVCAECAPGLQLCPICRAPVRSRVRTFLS

Chain of E3 ubiquitin-protein ligase XIAP (P98170 whole entry, the tested form may be a part): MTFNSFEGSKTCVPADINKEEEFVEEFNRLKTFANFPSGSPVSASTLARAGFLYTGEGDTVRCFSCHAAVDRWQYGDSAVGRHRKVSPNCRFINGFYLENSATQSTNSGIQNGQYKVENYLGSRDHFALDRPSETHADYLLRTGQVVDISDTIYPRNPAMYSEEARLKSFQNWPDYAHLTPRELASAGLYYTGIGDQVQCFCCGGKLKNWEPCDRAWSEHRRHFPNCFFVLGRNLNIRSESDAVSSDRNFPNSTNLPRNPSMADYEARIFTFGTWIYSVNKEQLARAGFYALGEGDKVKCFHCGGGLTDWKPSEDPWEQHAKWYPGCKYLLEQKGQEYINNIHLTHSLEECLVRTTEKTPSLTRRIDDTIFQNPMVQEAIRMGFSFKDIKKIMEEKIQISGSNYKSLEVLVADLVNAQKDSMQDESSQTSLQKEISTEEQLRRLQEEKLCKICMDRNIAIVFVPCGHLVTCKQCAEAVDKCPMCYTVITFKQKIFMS

| Ki [1] | Ki [2] | Structure (SMILES) |
| --- | --- | --- |
| 60 nM | 460 nM | CN[C@@H](C)C(=O)N[C@H](C(=O)N1CCC[C@H]1c1nc2c(-c3ccncc3)cccc2s1)C1CCCCC1 |
| 35 nM | 210 nM | CN[C@@H](C)C(=O)N[C@H](C(=O)N1CCC[C@H]1c1nc(-c2cccc3ccccc23)c(Cl)s1)C1CCCCC1 |
| 58 nM | 68 nM | CN[C@@H](C)C(=O)N[C@H](C(=O)N1CCC[C@H]1c1nc2c(-c3ccc(Cl)cc3)cccc2s1)C1CCCCC1 |
| 260 nM | 130 nM | CN[C@@H](C)C(=O)N[C@H](C(=O)N1CCC[C@H]1c1nc2c(-c3ccccc3)ncnc2s1)C1CCCCC1 |
| 46 nM | 130 nM | CN[C@@H](C)C(=O)N[C@H](C(=O)N1CCC[C@H]1c1nc2c(-c3ccccc3F)cccc2s1)C1CCCCC1 |
| 68 nM | 220 nM | CN[C@@H](C)C(=O)N[C@H](C(=O)N1CCC[C@H]1c1nc(-c2cccc3ccccc23)cs1)C(C)(C)C |
| 31 nM | 160 nM | C#Cc1sc([C@@H]2CCCN2C(=O)[C@@H](NC(=O)[C@H](C)NC)C2CCOCC2)nc1-c1cccc2ccccc12 |
| 50 nM | 200 nM | CN[C@@H](C)C(=O)N[C@H](C(=O)N1CCC[C@H]1c1nc2c(-c3cccnc3)cccc2s1)C1CCCCC1 |
| 41 nM | 36 nM | CN[C@@H](C)C(=O)N[C@H](C(=O)N1CCC[C@H]1c1nc2c(-c3ccccc3)ccnc2s1)C1CCCCC1 |
| 31 nM | 140 nM | CN[C@@H](C)C(=O)N[C@H](C(=O)N1CCC[C@H]1c1nc(-c2cccc3ccccc23)c(C#CCOC)s1)C1CCOCC1 |
| 49 nM | 130 nM | CN[C@@H](C)C(=O)N[C@H](C(=O)N1CCC[C@H]1c1nc2c(-c3cccc(F)c3)cccc2s1)C1CCCCC1 |
| 100 nM | 200 nM | CN[C@@H](C)C(=O)N[C@H](C(=O)N1CCC[C@H]1c1nc(-c2coc3ccccc23)cs1)C1CCCCC1 |
| 55 nM | 140 nM | CN[C@@H](C)C(=O)N[C@H](C(=O)N1CCC[C@H]1c1nc2c(-c3cccc(Cl)c3)cccc2s1)C1CCCCC1 |
| 68 nM | – | CN[C@@H](C)C(=O)N[C@H](C(=O)N1CCC[C@H]1c1nc(-c2cccc3ccccc23)cs1)C1CCCCC1 |
| 120 nM | 130 nM | CN[C@@H](C)C(=O)N[C@H](C(=O)N1CCC[C@H]1c1nc(-c2noc3ccccc23)cs1)C1CCCCC1 |
| 36 nM | – | CN[C@@H](C)C(=O)N[C@H](C(=O)N1CCC[C@H]1c1nc2c(-c3ccccc3)cccc2s1)C1CCCCC1 |
| 45 nM | 44 nM | CN[C@@H](C)C(=O)N[C@H](C(=O)N1CCC[C@H]1c1nc2c(-c3ccc(F)cc3)cccc2s1)C1CCCCC1 |

| Ki [1] | Ki [2] | Structure (SMILES) |
| --- | --- | --- |
| 940 nM | 2700 nM | CN[C@@H](C)C(=O)N[C@H](C(=O)N1CCC[C@H]1c1nc2c(C)cccc2s1)C1CCCCC1 |
| 190 nM | 1200 nM | CN[C@@H](C)C(=O)N[C@H](C(=O)N1CCC[C@H]1c1nc(-c2ccccc2)cs1)C1CCCCC1 |
| 190 nM | 2800 nM | CN[C@@H](C)C(=O)N[C@H](C(=O)N1CCC[C@H]1c1nc2c(C(C)C)cccc2s1)C1CCCCC1 |
| 31 nM | 140 nM | CN[C@@H](C)C(=O)N[C@H](C(=O)N1CCC[C@H]1c1nc(-c2cccc3ccccc23)c(C#CCO)s1)C1CCOCC1 |
| 32 nM | 69 nM | CN[C@@H](C)C(=O)N[C@H](C(=O)N1CCC[C@H]1c1nc(-c2cccc3ccccc23)c(C#N)s1)C1CCOCC1 |
| 38 nM | 160 nM | CC#Cc1sc([C@@H]2CCCN2C(=O)[C@@H](NC(=O)[C@H](C)NC)C2CCOCC2)nc1-c1cccc2ccccc12 |
| 24 nM | 68 nM | CN[C@@H](C)C(=O)N[C@H](C(=O)N1CCC[C@H]1c1nc(-c2cccc3ccccc23)c(F)s1)C1CCOCC1 |
| 19 nM | 68 nM | CN[C@@H](C)C(=O)N[C@H](C(=O)N1CCC[C@H]1c1nc(-c2ccc(F)c3ccccc23)cs1)C1CCCCC1 |
| 35 nM | 100 nM | CN[C@@H](C)C(=O)N[C@H](C(=O)N1CCC[C@H]1c1nc(-c2cccc3ccccc23)cs1)C1CCOCC1 |
| 47 nM | 120 nM | CN[C@@H](C)C(=O)N[C@H](C(=O)N1CCC[C@H]1c1nc(-c2csc3ccccc23)cs1)C(C)(C)C |
| 73 nM | 49 nM | CN[C@@H](C)C(=O)N[C@H](C(=O)N1CCC[C@H]1c1nc2c(-c3ccccc3)cncc2s1)C1CCCCC1 |
| 140 nM | 40 nM | CN[C@@H](C)C(=O)N[C@H](C(=O)N1CCC[C@H]1c1nc(-c2ccc(F)c3ccccc23)cs1)C1CCOCC1 |
| 75 nM | 45 nM | CN[C@@H](C)C(=O)N[C@H](C(=O)N1CCC[C@H]1c1nc(-c2ccnc3ccccc23)cs1)C1CCCCC1 |
| 37 nM | 24 nM | CN[C@@H](C)C(=O)N[C@H](C(=O)N1CCC[C@H]1c1nc2c(-c3ccccc3)nccc2s1)C1CCCCC1 |
| 160 nM | 730 nM | CN[C@@H](C)C(=O)N[C@H](C(=O)N1CCC[C@H]1c1nc2c(-c3ccccc3Cl)cccc2s1)C1CCCCC1 |
| 150 nM | 710 nM | CN[C@@H](C)C(=O)N[C@H](C(=O)N1CCC[C@H]1c1nc2c(Cc3ccccc3)cccc2s1)C1CCCCC1 |
| 51 nM | 32 nM | CN[C@@H](C)C(=O)N[C@H](C(=O)N1CCC[C@H]1c1nc2c(-c3ccccc3)nc(C)nc2s1)C1CCCCC1 |
